Each block holds one compound with its values, some of them ahead of it.
Key:
[1] = tested on: ~19,000 different G4 sequences, G4 and non-G4 controls; assay: High-density DNA oligo microarray (~19,000 G4 sequences) selectivity profiling; type: binding; details: 500 nM compound
Source text: To further characterize the binding selectivity of compound B33, high-density and large-scale DNA microarrays that contained ˜19,000 different G4 sequences were fabricated and used. In this microarray, 340 reported G4s (G-rich sequences) as well as 280 non-G4s (C-rich sequences) were designed as positive and negative controls. Additionally, over 17,000 canonical G4 oligos with short loops (1˜7 nt) were also designed and synthesized by varying the loop sequences to meet the diversity of G4 structure. After folding the surface-grafted DNA oligos in high concentration of KCl buffer, TO and compound B33 solutions (500 nM) were incubated with the microarray, respectively. Then the slides were thoroughly washed, dried, and imaged by a fluorescent scanner using green channel. […] By quantifying the fluorescence intensity of each spot, the bindings of TO and compound B33 were further investigated. The kernel density estimate (KDE) plot and violin plot represented the distribution of the binding signals throughout the whole microarray. […] Compound B33 spectrum spanned a much wider range than that of TO. In the violin plot (FIG. 37C), the mean SNR value of TO group was 12, much higher than that of the compound B33 group. […] Furthermore, the selectivity of the two compounds were quantitatively profiled by using Gini coefficient. Gini coefficient, initially used as an economic concept, has been applied in profiling the selectivity/promiscuity of kinase inhibitors as well as RNA binders. A higher Gini value represents a better selectivity of a compound (Gini coefficient>0.75 is considered an excellent selectivity). The Gini coefficient based on the SNRs in the microarray.

[2] = target: five 5′Cy5-labeled G4s from cancer-relevant genes (BCL2, KRAS, mTOR, NRAS, telomeric DNA); assay: FIA selectivity profiling with five other 5′Cy5-labeled G4s; type: binding; details: five 5′Cy5-labeled G4s other than MYCN
[3] = target: MYCN G4 DNA; assay: Microscale thermophoresis (MST) with 3′-Cy5 MYCN G4 DNA; parameters: species or system human; details: 3′-Cy5 labeled MYCN G4, 1:1 binding model; read-out: binding affinity by MST
Method: Microscale thermophoresis (MST). MST experiments were carried out on a Monolith NT.115 system (NanoTemper Technologies). The 3′-Cy5 MYCN G4 DNA solutions were prepared in 10 mM Tris (pH 7.5), 100 mM KCl, 0.005% T20, annealed (according to the above-mentioned method), and diluted to 100 nM (2×). The DMSO solutions of small molecules were prepared in the buffer with a series 1:1 dilution, resulting in 2× of designed concentrations (10% DMSO). Then, DNA samples were 1:1 (v/v) mixed with corresponding small molecule solutions, resulting in 50 nM DNA and 5% DMSO. Finally, MST signals were detected in triplicate capillaries, and the dissociation constant was determined by fitting the curve using a single-site model (MO.Affinity Analysis v2.3).

[4] = tested on: N-Myc protein; assay: Western blot of N-Myc protein in NBEB cells; type: cell-based; details: 48 h, Western blotting
Method: (§1) To examine the effects of G4-binding compounds on NBEB cells, live-cell imaging was performed using an Incucyte interface (described below). NBEB (5K/well), cells were seeded into 96-well plates in triplicate, treated with compound MY-8 at various concentrations (0-45 μM), and cultured until control wells reached confluence. For RT-qPCR and western blotting, NBEB (300K) cells were treated with MY-8 in 6-well dish for 48 h. To examine the time-dependent decrease in MYCNOs expression, cells were treated with 22.5 μM and 45 μM MY-8 and analyzed at various times (0, 4, 24, 48, 72 and 96 h). To validate cell viability, a Trypan Blue exclusion test was performed following treatment at 48 h and 96 h post treatment and the proportion of live versus dead cells was calculated using a hemocytometer.
Protein assay. Forty-eight hours post-MY-8 treatment in 6-well plates, single copy MYCN cells were lysed directly in the plate with Radioimmunoprecipitation assay buffer (Beyotime, China), pelleted, and chilled at −80° C. […] Total protein concentrations were determined using a Bradford Assay using the Bradford reagent (Beyotime, China). […] Chemiluminescent signal was detected using Clarity™ Western ECL Substrate (Bio-Rad, USA) or Supersignal™ West Femto Maximum Sensitivity Substrate (ThermoFisher Scientific, USA) with a ChemiDoc gel imaging system (Bio-Rad, USA).

[5] = tested on: MYCN mRNA; assay: qRT-PCR of MYCN mRNA in NBEB cells; type: cell-based; details: NBEB cells, 24, 36, 48 h, higher concentrations
Method: as §1
Quantitative RT-PCR. Total RNA was extracted from NBEB cells according to manufacturer's instructions (RNeasy Plus Mini Extraction kit (#74134) (Qiagen, CA). RNA (1 μg) was reverse transcribed into cDNA using the cDNA synthesis High-Capacity RNA-to-cDNA™ Kit. Quantitative PCR was performed using Fast SYBR™ Green Master Mix according to the manufacturer's protocol. Beta-actin was used as a housekeeping gene. Relative expression was calculated using the 2(−ΔCt) method. The qPCR primer sequences can be found in supplementary materials.

SMILES: COc1ccc(-c2noc(-c3ccc(NCCCNc4c5ccc(Cl)cc5nc5ccc(OC)cc45)nn3)n2)cc1 [B33, N^1-(6-chloro-2-methoxyacridin-9-yl)-N^3-(6-(3-(4-methoxyphenyl)-1,2,4-oxadiazol-5-yl)pyridazin-3-yl)propane-1,3-diamine]
- binding to the 620 G4 and non-G4 controls ([1]; 340 G4s and 280 non-G4s): some binding to G4s while there was no binding observed in non-G4 group
- Gini coefficient ([1]; based on SNRs in the microarray): 0.628

- binding affinities (KD) to other G4s [2]: no significant quenching behavior
- Kd [3]: 8.1 ± 1.7 µM
SMILES: COc1ccc(-c2noc(-c3ccc(NCCCN4CCCC4)nn3)n2)cc1 [MY-1, 6-(3-(4-methoxyphenyl)-1,2,4-oxadiazol-5-yl)-N-(3-(pyrrolidin-1-yl)propyl)pyridazin-3-amine]

SMILES: COc1ccc(-c2noc(-c3ccc(NCCCN4CCCCCC4)nn3)n2)cc1 [MY-8, N-(3-(azepan-1-yl)propyl)-6-(3-(4-methoxyphenyl)-1,2,4-oxadiazol-5-yl)pyridazin-3-amine]
- levels of N-Myc protein [4]: decreased upon treatment with MY-8 in a dose-dependent fashion
- MYCN mRNA level [5]: clear decreases of mRNA level

— US20240287054A1, “COMPOUNDS THAT BIND NON-CANONICAL G-QUADRUPLEX STRUCTURES AND METHODS OF MAKING AND USING THE SAME” (The U.S.A., as Represented by the Secretary, Department of …, priority 2021, published 2024)
